Assay results as given in patent publication US20120316199A1, “COMPOSITIONS AND METHODS FOR TREATING, CONTROLLING, REDUCING, OR AMELIORATING INFLAMMATORY PAIN” (priority 2011, published 2012).

Test system: intraocular pressure (IOP)
Assay: Intraocular pressure in New Zealand White rabbits, topical dosing four times daily
Format: in vivo
Details: for Intraocular Pressure, MEAN: A.M. readings
Procedure: On Days 1-31, animals received daily topical doses of the appropriate test article into the right eye. Animals were dosed four times per day, with doses administered 2 hours apart. Doses were administered using a calibrated 50-μL pipette. The eyelids were held close for 10 seconds immediately following dosing. The time of each dose administration was recorded.
Intraocular pressure (“IOP”) was determined for both eyes of each animal on Days 3, 5, 10, 12, 16, 18, 22, 24, 26, 30, and 32. IOP was evaluated with a Medtronic Solan, Model 30 classic pneumatonometer. Proparacaine hydrochloride 0.5% (1 drop) was delivered to each eye prior to IOP measurement. IOP was measured on Monday. Wednesday, and Friday of each week. A two-point diurnal curve was established: IOP was recorded at 8 a.m. and 12 p.m. on Day 3, and at 8 a.m. and 2 p.m. on later days, with a ±1 hour range for each of these times. The time of the measurements was recorded.
Descriptive statistics were prepared for IOP data of each treatment group (left and right eyes separately) at each measurement interval. The statistics included the number of observations (“N”) mean, standard deviation (“STD”), and standard error (“SEM”). Statistical analyses were conducted on IOP results using Statistical Analysis Systems (SAS Institute. Inc., Cary, N.C. V8.0). Parameters were evaluated using analysis of variance/GLM Procedure followed by Tukey's Standardized Range Test (Tukey, 1985) for post hoc comparisons of group means. The level of significance was set at a probability of p<0.05 for all statistical procedures. Group IOP means were compared at each interval, with left and right eyes compared separately.

With `Cc1ccc2c(NC[C@](O)(CC(C)(C)c3cc(F)cc4c3OCC4)C(F)(F)F)cccc2n1` [BOL-303242-X, mapracorat] the “Differences in mean IOP versus BSS group” value (BOL-303242-X groups B-D (10, 5, 1 mg/g), p<0.05) was “No statistically significant (p<0.05) differences”, the “Effect of daily dosing on IOP compared to daily dosing with dexamethasone” value (BOL-303242-X suspensions 0.05, 0.25, 0.5 mg/dose, four times daily up to 31 days) was “did not increase IOP” and the “Course of mean IOP after treatment began” value (left and right eyes, dexamethasone 0.1% (Group A), BOL-303242-X 10, 5, 1 mg/g (Groups B-D), four times daily) was “not seen”. For the same compound, the “Intraocular Pressure, MEAN” value (treated right eyes, Day 3, 1 mg/g (Group D)) was 23.0 mmHg, the “Intraocular Pressure, MEAN” value (treated right eyes, Day 3, 5 mg/g (Group C)) was 23.7 mmHg and the “Intraocular Pressure, MEAN” value (treated right eyes, Day 3, 10 mg/g (Group B)) was 22.7 mmHg. For the same compound, the “Intraocular Pressure, MEAN” value (treated right eyes, Day 5, 1 mg/g (Group D)) was 24.7 mmHg, the “Intraocular Pressure, MEAN” value (treated right eyes, Day 5, 5 mg/g (Group C)) was 24.7 mmHg and the “Intraocular Pressure, MEAN” value (treated right eyes, Day 5, 10 mg/g (Group B)) was 23.8 mmHg. For the same compound, the “Intraocular Pressure, MEAN” value (treated right eyes, Day 10, 1 mg/g (Group D)) was 24.8 mmHg, the “Intraocular Pressure, MEAN” value (treated right eyes, Day 10, 5 mg/g (Group C)) was 25.2 mmHg and the “Intraocular Pressure, MEAN” value (treated right eyes, Day 10, 10 mg/g (Group B)) was 24.5 mmHg. The “Intraocular Pressure, MEAN” value (treated right eyes, Day 12, 1 mg/g (Group D)) was 23.4 mmHg, the “Intraocular Pressure, MEAN” value (treated right eyes, Day 12, 5 mg/g (Group C)) was 25.0 mmHg and the “Intraocular Pressure, MEAN” value (treated right eyes, Day 12, 10 mg/g (Group B)) was 23.9 mmHg. For the same compound, the “Intraocular Pressure, MEAN” value (treated right eyes, Day 16, 1 mg/g (Group D)) was 22.1 mmHg, the “Intraocular Pressure, MEAN” value (treated right eyes, Day 16, 5 mg/g (Group C)) was 24.3 mmHg and the “Intraocular Pressure, MEAN” value (treated right eyes, Day 16, 10 mg/g (Group B)) was 23.4 mmHg. For the same compound, the “Intraocular Pressure, MEAN” value (treated right eyes, Day 18, 1 mg/g (Group D)) was 23.7 mmHg, the “Intraocular Pressure, MEAN” value (treated right eyes, Day 18, 5 mg/g (Group C)) was 23.9 mmHg and the “Intraocular Pressure, MEAN” value (treated right eyes, Day 18, 10 mg/g (Group B)) was 22.3 mmHg. For the same compound, the “Intraocular Pressure, MEAN” value (treated right eyes, Day 22, 1 mg/g (Group D)) was 23.2 mmHg, the “Intraocular Pressure, MEAN” value (treated right eyes, Day 22, 5 mg/g (Group C)) was 22.4 mmHg and the “Intraocular Pressure, MEAN” value (treated right eyes, Day 22, 10 mg/g (Group B)) was 22.4 mmHg. The “Intraocular Pressure, MEAN” value (treated right eyes, Day 24, 1 mg/g (Group D)) was 22.1 mmHg, the “Intraocular Pressure, MEAN” value (treated right eyes, Day 24, 5 mg/g (Group C)) was 23.8 mmHg and the “Intraocular Pressure, MEAN” value (treated right eyes, Day 24, 10 mg/g (Group B)) was 21.2 mmHg. The “Intraocular Pressure, MEAN” value (treated right eyes, Day 26, 1 mg/g (Group D)) was 23.1 mmHg, the “Intraocular Pressure, MEAN” value (treated right eyes, Day 26, 5 mg/g (Group C)) was 22.1 mmHg and the “Intraocular Pressure, MEAN” value (treated right eyes, Day 26, 10 mg/g (Group B)) was 21.8 mmHg. The “Intraocular Pressure, MEAN” value (treated right eyes, Day 30, 1 mg/g (Group D)) was 24.2 mmHg, the “Intraocular Pressure, MEAN” value (treated right eyes, Day 30, 5 mg/g (Group C)) was 22.9 mmHg and the “Intraocular Pressure, MEAN” value (treated right eyes, Day 30, 10 mg/g (Group B)) was 22.7 mmHg. For the same compound, the “Intraocular Pressure, MEAN” value (treated right eyes, Day 32, 1 mg/g (Group D)) was 24.9 mmHg, the “Intraocular Pressure, MEAN” value (treated right eyes, Day 32, 5 mg/g (Group C)) was 23.4 mmHg and the “Intraocular Pressure, MEAN” value (treated right eyes, Day 32, 10 mg/g (Group B)) was 23.9 mmHg. The “Intraocular Pressure, MEAN” value (treated right eyes, Pre-Study, 1 mg/g (Group D)) was 24.4 mmHg, the “Intraocular Pressure, MEAN” value (treated right eyes, Pre-Study, 5 mg/g (Group C)) was 24.8 mmHg and the “Intraocular Pressure, MEAN” value (treated right eyes, Pre-Study, 10 mg/g (Group B)) was 24.0 mmHg. For the same compound, the “Intraocular Pressure, MEAN” value (untreated left eyes, Day 3, 1 mg/g (Group D)) was 23.5 mmHg, the “Intraocular Pressure, MEAN” value (untreated left eyes, Day 3, 5 mg/g (Group C)) was 23.8 mmHg and the “Intraocular Pressure, MEAN” value (untreated left eyes, Day 3, 10 mg/g (Group B)) was 23.3 mmHg. For the same compound, the “Intraocular Pressure, MEAN” value (untreated left eyes, Day 5, 1 mg/g (Group D)) was 24.4 mmHg, the “Intraocular Pressure, MEAN” value (untreated left eyes, Day 5, 5 mg/g (Group C)) was 24.4 mmHg and the “Intraocular Pressure, MEAN” value (untreated left eyes, Day 5, 10 mg/g (Group B)) was 23.4 mmHg. For the same compound, the “Intraocular Pressure, MEAN” value (untreated left eyes, Day 10, 1 mg/g (Group D)) was 24.5 mmHg, the “Intraocular Pressure, MEAN” value (untreated left eyes, Day 10, 5 mg/g (Group C)) was 24.6 mmHg and the “Intraocular Pressure, MEAN” value (untreated left eyes, Day 10, 10 mg/g (Group B)) was 24.0 mmHg. For the same compound, the “Intraocular Pressure, MEAN” value (untreated left eyes, Day 12, 1 mg/g (Group D)) was 22.2 mmHg, the “Intraocular Pressure, MEAN” value (untreated left eyes, Day 12, 5 mg/g (Group C)) was 23.8 mmHg and the “Intraocular Pressure, MEAN” value (untreated left eyes, Day 12, 10 mg/g (Group B)) was 23.8 mmHg.
